Reference: US11642366B2, “Methods for preventing a serious health consequence and/or tissue damage after exposure to ionizing radiation and/or chemotherapy” (GLYCOMIRA THERAPEUTICS, INC., priority 2018, dated 2023)

Assays:
myeloperoxidase (MPO) = assay: Study (1): tissue concentrations of myeloperoxidase (MPO) in tongue homogenate by ELISA; assay type: in vivo, mouse (BDF1 male); conditions: 30 mg/kg SQ once daily day -2 to 7; 20 Gy; day 8; vehicle/irradiated 50%
Source text: Prior to the x-ray irradiation, all animals except the healthy control group were gently guided into a restrainer for short durations. This behavioral training was held once daily for two days and it was designed to reduce potential stresses on the animals during the once daily irradiation session. For head-only irradiation, the restrainers containing the animals were shielded with a lead block that had rectangular holes to expose the head. X-rays were generated by RS2000 Biological Research Irradiator (Rad Source Technologies, GA) with parameters set as 160 kV/25 mA. For study (1), the animals were divided into 4 groups (10 mice for each group)—vehicle (phosphate buffered saline) treated healthy, vehicle treated ROM, GM-1111 treated ROM, and HA treated ROM. […]
(§1) Body weights of the animals were measured every other day from 2 days prior to the first irradiation day (day 0). Clinical signs were monitored every day during the entire experimental period. […]
All tongue samples were thawed on ice prior to homogenization. […] The total protein concentration of the supernatant was measured for each sample using the Pierce™ Protein Assay kit. Tissue concentrations of IL-6 and myeloperoxidase (MPO) were then determined with commercially available ELISA kits: IL-6 (BioLegend, CA) and MPO (R&D Systems, MN). […]

[1] = test system: ROM (radiation induced oral mucositis) in the tongue; assay: Study (1): single dose x-ray irradiation induced ROM, necropsy and histology of the tongue; assay type: in vivo, mouse (BDF1 male); conditions: 30 mg/kg SQ once daily day -2 to 7
Source text: Modified hyaluronan (referred to herein as GM-1111) used to treat the animals is a sulfated hyaluronan methylated at the primary C-6 hydroxyl position of an N-acetyl-glucosamine residue and having a molecular weight of approximately 5.5 kDa.
Approximately 7-8 weeks of old male BDF1 (B6D2F1) mice were purchased from Charles River Laboratories (MA). These animals were housed in a room with fully controlled environment (temperature, humidity, and light/dark cycle). The feed and water were freely accessible to all animals throughout the entire study period. All animals were acclimatized for one week prior to the irradiation and they were approximately 8-10 weeks old at the time of the study. The experimental protocol (16-07008) was approved by the University of Utah Institutional Animal Care and Use Committee (IACUC). […]
as §1
Histological observations were graded for each category and the sum of these grades was used to designate the severity of each sample. The resulting severity scores from all irradiation groups were analyzed with Kruskal-Wallis test followed by Dunnett-type multiple comparison test using nparcomp package. […]

Hyaluronic acid [HA]
Animals with higher than normal range of MPO in the tongue (myeloperoxidase (MPO)): about 70% | Overall effect against ROM (necropsy, MPO, histology) ([1]; 20 Gy): did not show any measurable therapeutic benefits | Ulcerative lesions in the tongue at necropsy (Toluidine Blue staining) ([1]; 20 Gy head-only x-ray on day 0, necropsy day 8): severe ulcerative lesions in the tongue similar to the vehicle treated animals
